Values quoted from earlier work as cited in patent US20250000096A1, “ANTIMICROBIAL COMPOSITION WITH A LOW ODOR” (EVONIK CORPORATION, priority 2021, published 2025).

Details: background statement

limit for olfactory detection: 0.15 ppm
SMILES: CC(=O)O [acetic acid]
